Measurements: US8703764B2, “Combination therapy for dementia, depression and apathy” (priority 2003, dated 2014)

Key:
[1] = test system: apathy in a patient with Parkinson's disease; assay: Case report Example 5: severe apathy in a patient with Parkinson's disease; assay type: in vivo, human; conditions: before admission to hospital
Description: A person retired sailor developed Parkinson's disease more than 5 years before admission to hospital. After the onset of Parkinson's disease they developed decreased motivation and decreased interest. The severity of the apathy progressed to a near total lack of initiative. A trial of methylphenidate for apathy was unsuccessful. They were admitted to hospital with anxiety, severe apathy and constipation. They were unable to function at home leading to caregiver burn out.
Core symptoms of delirium were absent. A shuffling gait devoid of heel strike or toe push was observed. Arm swing was decreased. This person described decreased motivation in face of clear enjoyment of family visits and the sunshine outside. Their capacity for projective pleasure was preserved. They were satisfied with their accomplishments over their life. They felt their quality of life was reduced by their lack initiative. Objective mood and affect were flat. Thought form was marked by latency but progressed logically to a goal oriented conclusion. Thought content was free of delusions or hallucinations. Language was mildly impaired with paraphasic errors noted. Remote memories were difficult to recall and approximately correct. Their sense of humor and capacity for abstraction were preserved.
This was judged consistent with Parkinson's disease by the registered psychologist.
They could walk four lengths of the hallway. […]

[2] = test system: patient with depressed mood, lack of pleasure and absent initiative; assay: Case report Example 6: depressed mood, lack of pleasure and absent initiative in a retired nurse; assay type: in vivo, human
Method: A 75 year retired nurse lived independently in the community until 2 months prior to admission.
Moclobemide was commenced at 200 mg. daily on day 4, increased to 300 mg. daily and day 6 and continued at 300 mg. daily.
Risperidone was commenced at 0.5 mg daily on day 7, discontinued on day 14 then restarted at 0.5 mg daily alternating with 0.25 mg. daily and continued as such.

[3] = test system: patient with early onset Alzheimer's disease; assay: Case report Example 4: patient with early onset Alzheimer's disease, anxiety and depressed mood; conditions: for adverse effect leading to discontinuation: human, in vivo

COC(=O)C(c1ccccc1)C1CCCCN1 (stereo not drawn) [methylphenidate]
trial for apathy [1]: unsuccessful

O=C(NCCN1CCOCC1)c1ccc(Cl)cc1 [moclobemide, p-chloro-N-(2-morpholinoethyl) benzamide]
late afternoon quality of mood and mobility of affect ([2]; by Day 6, moclobemide 200 mg daily from day 4, 300 mg daily from day 6, before risperidone): improved

Cc1nc2n(c(=O)c1CCN1CCC(c3noc4cc(F)ccc34)CC1)CCCC2 [risperidone, 3-[2-[4-(6-fluoro-1,2-benzisoxazol-3-yl)piperidino]ethyl]-2-methyl-6,7,8,9-tetrahydro-4H-pyrido-[1,2-a]pyrimidin-4-one]
extrapyramidal side effects ([2]; shortly after Day 13, risperidone 0.5 mg daily): mild extrapyramidal symptoms emerged | adverse effect leading to discontinuation [3]: emergence of dystonia

COc1ccc(C(CN(C)C)C2(O)CCCCC2)cc1 (stereo not drawn) [venlafaxine]
adverse effect leading to discontinuation [3]: excessive sweating | depressed mood ([3]; venlafaxine 150 mg daily, donepezil 10 mg daily commenced): responded
